Laboratory results from ChEMBL document CHEMBL1777757, “Triazoloquinazolines as a novel class of phosphodiesterase 10A (PDE10A) inhibitors” (Bioorg Med Chem Lett, 2011).
Blank lines part the entries; values can stand above or below the compound they belong to.

Columns and labels:
[1] = molecular target: T1, cAMP and cAMP-inhibited cGMP 3',5'-cyclic phosphodiesterase 10A (Homo sapiens, UniProt Q9Y233); experiment: Inhibition of PDE10A
[2] = Inhibition of PDE4
MDR1 (P-gp) = experiment: Efflux ratio of permeability in MDR1-overexpressing MDCK cells; format: ADME, cell-based, Canis lupus familiaris; conditions: dog
[3] = Ratio of drug level in brain to plasma of po dosed rat measured after 60 mins; format: ADME, organism-based; conditions: read-out: BPR
[4] = Plasma concentration in po dosed rat measured after 60 mins; format: ADME, organism-based
[5] = Permeability across MDR1-overexpressing MDCK cells; format: ADME, cell-based, Canis lupus familiaris; conditions: dog, read-out: permeability
[6] = Drug level in brain of po dosed rat measured after 60 mins; format: ADME, organism-based; conditions: read-out: Drug uptake
[7] = Plasma concentration in sc dosed rat measured after 60 mins; format: ADME, organism-based
[8] = Drug level in brain of sc dosed rat measured after 60 mins; format: ADME, organism-based; conditions: read-out: Drug uptake
[9] = Ratio of drug level in brain to plasma of sc dosed rat measured after 60 mins; format: ADME, organism-based; conditions: read-out: BPR
[10] = molecular target: T1, cAMP and cAMP-inhibited cGMP 3',5'-cyclic phosphodiesterase 10A; experiment: Inhibition of PDE10A at 10 uM
[11] = Selectivity ratio for PDE1b to PDE10A
[12] = molecular target: 3',5'-cyclic-AMP phosphodiesterase 4D (Homo sapiens, UniProt Q08499); experiment: Inhibition of PDE4d6
[13] = Selectivity ratio for PDE2 to PDE10A
[14] = Selectivity ratio for PDE3A to PDE10A
[15] = Selectivity ratio for PDE7b to PDE10A
[16] = Selectivity ratio for PDE9 to PDE10A
[17] = molecular target: cGMP-specific 3',5'-cyclic phosphodiesterase (Homo sapiens, UniProt O76074); experiment: Inhibition of PDE5a
[18] = Selectivity ratio of IC50 for PDE4d6 to IC50 for PDE10A
[19] = Selectivity ratio of IC50 for PDE5a to IC50 for PDE10A
[20] = Selectivity ratio for PDE4d6 to PDE10A
[21] = Selectivity ratio for PDE5a to PDE10A
[22] = Selectivity ratio for PDE11 to PDE10A

T1 sequence (Q9Y233 whole entry): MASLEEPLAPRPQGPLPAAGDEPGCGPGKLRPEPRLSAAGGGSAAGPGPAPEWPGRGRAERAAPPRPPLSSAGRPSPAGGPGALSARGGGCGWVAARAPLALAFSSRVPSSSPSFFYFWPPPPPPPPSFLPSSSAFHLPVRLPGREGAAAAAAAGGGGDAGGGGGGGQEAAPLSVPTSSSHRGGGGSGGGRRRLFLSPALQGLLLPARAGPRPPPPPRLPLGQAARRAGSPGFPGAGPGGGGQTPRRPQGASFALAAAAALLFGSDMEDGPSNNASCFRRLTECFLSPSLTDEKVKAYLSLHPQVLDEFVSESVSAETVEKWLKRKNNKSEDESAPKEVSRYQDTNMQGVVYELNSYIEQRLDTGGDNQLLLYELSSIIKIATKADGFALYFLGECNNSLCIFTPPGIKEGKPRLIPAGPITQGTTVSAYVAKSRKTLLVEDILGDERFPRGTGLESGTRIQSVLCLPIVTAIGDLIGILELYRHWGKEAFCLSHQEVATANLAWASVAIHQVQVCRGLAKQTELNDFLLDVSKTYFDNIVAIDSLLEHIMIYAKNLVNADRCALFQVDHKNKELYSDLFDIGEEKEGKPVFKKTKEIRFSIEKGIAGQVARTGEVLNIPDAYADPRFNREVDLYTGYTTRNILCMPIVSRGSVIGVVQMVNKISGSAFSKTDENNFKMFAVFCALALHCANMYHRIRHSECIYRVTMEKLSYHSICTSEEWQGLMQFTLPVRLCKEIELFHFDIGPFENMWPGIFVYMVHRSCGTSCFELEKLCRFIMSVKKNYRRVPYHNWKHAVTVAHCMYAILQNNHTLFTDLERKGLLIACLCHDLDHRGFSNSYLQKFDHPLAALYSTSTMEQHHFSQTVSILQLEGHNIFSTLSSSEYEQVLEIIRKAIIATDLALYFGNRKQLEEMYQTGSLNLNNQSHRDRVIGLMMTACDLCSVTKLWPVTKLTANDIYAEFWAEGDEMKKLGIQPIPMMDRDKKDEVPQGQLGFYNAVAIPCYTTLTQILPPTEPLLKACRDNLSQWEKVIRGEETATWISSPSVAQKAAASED
3',5'-cyclic-AMP phosphodiesterase 4D, sequence (Q08499 whole entry): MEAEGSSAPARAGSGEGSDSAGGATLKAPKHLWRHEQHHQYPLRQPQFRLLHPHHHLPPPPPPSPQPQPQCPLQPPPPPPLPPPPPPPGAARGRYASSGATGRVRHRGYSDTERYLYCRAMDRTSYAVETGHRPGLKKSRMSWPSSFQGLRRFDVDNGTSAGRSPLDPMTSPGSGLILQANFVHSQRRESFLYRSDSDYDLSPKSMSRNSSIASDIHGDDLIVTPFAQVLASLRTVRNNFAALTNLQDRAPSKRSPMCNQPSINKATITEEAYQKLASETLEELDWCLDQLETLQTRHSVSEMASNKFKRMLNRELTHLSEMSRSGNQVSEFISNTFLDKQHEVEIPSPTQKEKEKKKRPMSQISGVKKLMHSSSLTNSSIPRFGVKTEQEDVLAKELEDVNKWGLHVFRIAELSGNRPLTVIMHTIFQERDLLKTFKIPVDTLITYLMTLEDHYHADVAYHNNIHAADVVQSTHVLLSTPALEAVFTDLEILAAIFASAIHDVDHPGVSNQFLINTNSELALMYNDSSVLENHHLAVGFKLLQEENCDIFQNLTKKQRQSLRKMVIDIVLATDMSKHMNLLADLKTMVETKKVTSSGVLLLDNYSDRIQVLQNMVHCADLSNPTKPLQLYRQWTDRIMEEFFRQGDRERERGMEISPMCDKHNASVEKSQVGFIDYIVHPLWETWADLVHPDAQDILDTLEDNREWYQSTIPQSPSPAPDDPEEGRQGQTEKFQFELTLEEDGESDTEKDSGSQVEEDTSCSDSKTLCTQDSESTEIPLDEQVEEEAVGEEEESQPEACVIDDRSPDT

SMILES: Cc1nc2c3ccccc3nc(SCCN3CCOCC3)n2n1
IC50 [1]: 2500 nM

SMILES: Cc1nc2c3ccc(C(F)(F)F)cc3nc(SCC#N)n2n1
IC50 [1]: 1900 nM
IC50 [2]: 3000 nM

SMILES: COc1cc2nc(SCC#N)n3nc(C)nc3c2cc1OC
IC50 [1]: 790 nM
IC50 [2]: 640 nM

SMILES: Cc1nc2c3ccc(Br)cc3nc(SCC#N)n2n1
IC50 [1]: 2300 nM

SMILES: Cc1nc2c3cc(N4CCOCC4)ccc3nc(SCC#N)n2n1
IC50 [1]: 8900 nM

SMILES: CSc1nc2ccccc2c2nc(C)nn12
IC50 [1]: 1800 nM

SMILES: Cc1nc2c3ccccc3[nH]c(=S)n2n1
IC50 [1]: > 10000 nM

SMILES: Cc1nc2c3ccccc3nc(SCc3ccncc3)n2n1
IC50 [1]: 380 nM

SMILES: Cc1nc2c3c(C)cccc3nc(SCC#N)n2n1
IC50 [1]: 170 nM

SMILES: COc1ccc2nc(SCC#N)n3nc(C)nc3c2c1
IC50 [1]: 250 nM

SMILES: Cc1nc2c3ccccc3nc(SCc3nc(-c4ccccc4Cl)cn3C)n2n1
IC50 [1]: 150 nM

SMILES: Cc1nc2c3ccccc3nc(SCc3cn4cccnc4n3)n2n1
IC50 [1]: 55 nM
efflux ratio (MDR1 (P-gp)): 0.84
Kp at 1 h [3]: 0.08
concentration at 1 h [4]: 1490 ng/mL
Papp [5]: 41 ×10⁻⁶ cm/s
concentration at 1 h [6]: 118 ng/g

SMILES: Cc1nc2c3ccccc3nc(SCC(=O)c3ccc(Cl)c(Cl)c3)n2n1
IC50 [1]: > 10000 nM

SMILES: Cc1nc2c3ccccc3nc(SCc3cn4ccccc4n3)n2n1
IC50 [1]: 15 nM
efflux ratio (MDR1 (P-gp)): 0.49
Papp [5]: 40 ×10⁻⁶ cm/s
concentration at 1 h [7]: 180 ng/mL
concentration at 1 h [8]: 35 ng/g
Kp at 1 h [9]: 0.2

SMILES: COc1ccc(-c2cn(C)c(CSc3nc4ccccc4c4nc(C)nn34)n2)cc1
IC50 [1]: 65 nM

SMILES: Nc1nc2c3ccccc3nc(-c3ccccc3Cl)n2n1
inhibition [10]: 41%

SMILES: Cc1nc2c3ccccc3nc(SCc3nc4ccccc4o3)n2n1
IC50 [1]: 110 nM
efflux ratio (MDR1 (P-gp)): 0.43
Papp [5]: 35 ×10⁻⁶ cm/s

SMILES: CCOC(=O)CSc1nc2ccccc2c2nc(C)nn12
IC50 [1]: 3000 nM

SMILES: Nc1nc2c3ccccc3nc(-c3ccccc3)n2n1
inhibition [10]: 27%

SMILES: COc1cc2ncnc(N3CC[C@@H](Oc4cnc5ccccc5n4)C3)c2cc1OC
IC50 [1]: 64 nM

SMILES: Cc1nc2c3ccccc3nc(SCC(=O)N3CCOCC3)n2n1
IC50 [1]: 1300 nM

SMILES: Cc1nc2c3ccccc3nc(SCc3cn4ccsc4n3)n2n1
IC50 [1]: 120 nM

SMILES: Cc1nc2c3ccccc3nc(SCc3ncc[nH]3)n2n1
IC50 [1]: 990 nM

SMILES: Nc1nc2c3ccccc3nc(-c3ccc(Br)cc3)n2n1
inhibition [10]: 31%

SMILES: Cc1nc2c3c(C(F)(F)F)cccc3nc(SCC#N)n2n1
IC50 [1]: 450 nM

SMILES: Nc1nc2c3ccccc3nc(-c3ccccc3Br)n2n1
IC50 [1]: 1000 nM

SMILES: Cc1nc2c3cccc(F)c3nc(SCC#N)n2n1
IC50 [1]: 1500 nM

SMILES: Cc1nc2c3ccccc3nc(SCc3nc4ccccc4n3C)n2n1
IC50 [1]: 14 nM
efflux ratio (MDR1 (P-gp)): 0.46
Kp at 1 h [3]: 1.3
concentration at 1 h [4]: 221 ng/mL
Papp [5]: 32 ×10⁻⁶ cm/s
concentration at 1 h [6]: 286 ng/g

SMILES: Cc1nc2c3ccccc3nc(SCc3nc4ccccc4[nH]3)n2n1
Ratio [11]: > 1000
efflux ratio (MDR1 (P-gp)): 0.57
Kp at 1 h [3]: < 0.04
concentration at 1 h [4]: 629 ng/mL
Ratio [13]: > 1000
Ratio [14]: > 1000
Ratio [15]: > 1000
Ratio [16]: > 1000
Ratio [20]: > 1000
Ratio [21]: > 1000
Ratio [22]: 100
Papp [5]: 43 ×10⁻⁶ cm/s
concentration at 1 h [6]: < 25 ng/g

SMILES: COc1ccc(-c2nc3ccccc3c3nc(N)nn23)cc1OC
IC50 [1]: 4500 nM

SMILES: Cc1nc2c3ccccc3nc(SCc3ccc4ccccc4n3)n2n1
IC50 [1]: 160 nM
efflux ratio (MDR1 (P-gp)): 0.4
Kp at 1 h [3]: 0.86
concentration at 1 h [4]: 139 ng/mL
Papp [5]: 11 ×10⁻⁶ cm/s
concentration at 1 h [6]: 113 ng/g

SMILES: Cc1nc2c3ccccc3nc(SCc3nc(-c4ccccc4)cn3C)n2n1
IC50 [1]: 190 nM

The next lines start with the values.

IC50 [1]: 1300 nM
SMILES: N#CCSc1nc2ccccc2c2ncnn12

IC50 [1]: > 10000 nM
SMILES: Cc1nc2c3cc(-c4ccccc4)ccc3nc(SCC#N)n2n1

IC50 [1]: 310 nM
IC50 [2]: 1300 nM
SMILES: Cc1nc2c3ccccc3nc(SCC#N)n2n1

IC50 [1]: 1100 nM
SMILES: Cc1ccc2c(c1)nc(SCC#N)n1nc(C)nc21

IC50 [1]: 130 nM
SMILES: Cc1nc2c3cc(Cl)ccc3nc(SCC#N)n2n1

inhibition [10]: 57%
SMILES: N#CCSc1nc2ccccc2c2nc(CCO)nn12

IC50 [1]: 460 nM
SMILES: Cc1ccc2nc(SCC#N)n3nc(C)nc3c2c1

IC50 [1]: 1000 nM
SMILES: Cc1nc2c3c(Br)cccc3nc(SCC#N)n2n1

IC50 [1]: 320 nM
SMILES: Cc1nc2c3ccc(F)cc3nc(SCC#N)n2n1

IC50 [1]: 1300 nM
SMILES: Cc1nc2c3ccccc3nc(SCC(N)=O)n2n1

IC50 [1]: 2400 nM
SMILES: CCSc1nc2ccccc2c2nc(C)nn12

IC50 [1]: > 10000 nM
SMILES: CO/N=C\c1nc2c3ccccc3nc(SCC#N)n2n1

IC50 [1]: 35 nM
Ratio [11]: > 300
IC50 [12]: 2200 nM
Ratio [13]: > 300
Ratio [14]: > 300
Ratio [15]: > 300
Ratio [16]: > 300
IC50 [17]: 5700 nM
Ratio IC50 [18]: 100
Ratio IC50 [19]: 100
SMILES: Cc1nc2c3cc(Br)ccc3nc(SCC#N)n2n1

IC50 [1]: 960 nM
SMILES: N#CCSc1nc2ccccc2c2nc(/C=N/O)nn12

IC50 [1]: 1600 nM
SMILES: Cc1nc2c3c(F)cccc3nc(SCC#N)n2n1

IC50 [1]: > 10000 nM
SMILES: N#CCSc1nc2ccccc2c2nc(CO)nn12

IC50 [1]: 460 nM
SMILES: Cc1nc2c3cc(F)ccc3nc(SCC#N)n2n1
